Values of other authors in article PMC6271933, “Evaluation of the Toxicity of 5-Aryl-2-Aminoimidazole-Based Biofilm Inhibitors against Eukaryotic Cell Lines, Bone Cells and the Nematode Caenorhabditis elegans” (Molecules, 2014).

Tests used:
[1] = test system: GH4C1 rat pituitary and N2A mouse neuroblastoma cell lines; parameters: method as in PMID 18493660; details: compared with parent molecule bromoageliferin; cited from earlier work
[2] = test system: A-431 cells; parameters: method as in PMID 9748366, PMID 12939464; details: cited from earlier work
[3] = test system: epidermal growth factor-stimulated DNA synthesis in squamous cell tumors; details: squamous cell tumors; cited from earlier work
[4] = test system: calcium entry in PC12 cells; parameters: method as in PMID 15777959; details: cited from earlier work
[5] = test system: mouse ES cells; parameters: method as in PMID 2998604; details: by inhibiting matrix metalloproteinase 2; cited from earlier work
[6] = test system: murine-grafted tumors, including P388 and L1210 leukemias, and solid tumors; parameters: method as in PMID 1783523, PMID 15133248; details: cited from earlier work
[7] = test system: several tumor cell lines; parameters: method as in PMID 1783523, PMID 15133248; details: cited from earlier work

In the case of NC[C@@H]1Cc2[nH]c(N)nc2C[C@@H]1CN [2o], the “cytotoxicity in GH4C1 rat pituitary and N2A mouse neuroblastoma cell lines” value [1] is listed as “lack the cytotoxicity”.

For COc1ccc(Cc2nc(NC3=NC(=O)N(C)C3=O)n(C)c2Cc2ccc(O)cc2)cc1 [2j, naamidine A], the “cell cycle arrest of A-431 cells” value [2] is given as “arrest in the G1 phase” and the “inhibition of epidermal growth factor-stimulated DNA synthesis” value [3] is given as “potently inhibit”.

For Nc1nc([C@@H]2c3[nH]c(N)nc3C[C@H](CNC(=O)c3cc(Br)c[nH]3)[C@H]2CNC(=O)c2cc(Br)c(Br)[nH]2)c[nH]1 [2b, bromoageliferin], the “calcium entry in PC12 cells” value [4] is given as “inhibit the calcium entry”.

In the case of NC[C@H]1Cc2nc(N)[nH]c2C[C@@H]1CN [2n], the “cytotoxicity in GH4C1 rat pituitary and N2A mouse neuroblastoma cell lines” value [1] is given as “lack the cytotoxicity”.

In the case of Nc1nc2c(-c3cc(Br)c(Br)[nH]3)nccc2[nH]1 [2d, ageladine A], the “angiogenesis in a model using mouse ES cells” value [5] is listed as “reduce angiogenesis”.

For dibromoageliferin [2c], the “calcium entry in PC12 cells” value [4] is listed as “inhibit the calcium entry”.

For NC[C@H](Cl)[C@@H](O)c1c[nH]c(N)n1 [2a, girolline], the “cytotoxicity in vivo against murine-grafted tumors” value [6] is given as “significant cytotoxicity” and the “cytotoxicity in vitro against several tumor cell lines” value [7] is given as “significant cytotoxicity”.
